Laboratory results as given in patent publication US5643954A, “Method of preventing and alleviating stress in a healthy mammal in need thereof” (priority 1993, dated 1997).

Experiments:
[1] = testings with Corazolin (Corazol), mice; format: in vivo; conditions: mouse, in vivo; 150 mg/kg of weight; read-out: death of the animals
Corazol convulsions = assay: testings with Corazolin (Corazol), mice; format: in vivo; conditions: 150 mg/kg of weight
[2] = format: in vivo; conditions: in words
[3] = tested on: bioelectric activity of rats' brain; assay: spontaneous bioelectrical activity of rats' brain (EEG, implanted electrodes); format: in vivo; conditions: 90 mg/kg
hexenal sleep = assay: comparative interaction test with hexenal, rats; format: in vivo; conditions: for Hexanal sleep duration: M ± m
[4] = orientation motive activity of mice, automated registration of movements; format: in vivo, mice (male); conditions: for Number of movements in 10 min in register: M ± m
Procedure: Experiments were conducted in vivo on male mice weighing 18-22 g and male rats weighing 200-250 g, as well as in vitro on the isolated organs: a guinea pig's ileum and a rat's seminal effervesces.

Corazol twitches = assay: comparative interaction test with Corazol, rats; format: in vivo; conditions: M ± m

| SMILES | mortality [1] | time to death of the animals (Corazol convulsions) | tonico-extensor component of Corazol and strychnine twitches and electrical shock [2] | Maximal effect appearance time from the start of experiment [3] | Nature of effect [3] | Nature of effect, effective for [3] | Index, fast activ. ([3]; M ± m) | Index, slow activ. ([3]; M ± m) | Hexanal sleep duration (hexenal sleep; 100 mg/kg) | Hexanal sleep duration (hexenal sleep; 200 mg/kg) | hexenal sleep (hexenal sleep; in words) | Number of movements in 10 min in register ([4]; 100 mg/kg intraperitoneally) | Number of movements in 10 min in register ([4]; 200 mg/kg intraperitoneally) | Number of movements in 10 min in register ([4]; 500 mg/kg intraperitoneally) | motor activity ([4]; in words) | Corazol twitches, latent period (Corazol twitches; 100 mg/kg) | Corazol twitches, latent period (Corazol twitches; 200 mg/kg) |
| --- | --- | --- | --- | --- | --- | --- | --- | --- | --- | --- | --- | --- | --- | --- | --- | --- | --- |
| C1CCc2nnnn2CC1 [Corazolin, reference compound] | 100% | 2 to 4 min | – | – | – | – | – | – | – | – | – | – | – | – | – | – | – |
| NCC(CC(=O)O)c1ccccc1 (centres unmarked) [phenibut, reference compound] | – | – | reduce the tonico-extensor component of Corazol and strychnine twitches and electrical shock | 40 min | Permanent | over 3 hrs | 77 ± 0.9% | 87 ± 3.1% | 110.0 ± 8.3 min | 130.0 ± 8.5 min | prolong hexenal sleep | 434 ± 4.4 | 186 ± 8.7 | 19 ± 3.0 | sharply inhibit motor activity as a dose is increased | 53.0 ± 5.4 min | 50.0 ± 2.8 min |
